In US20260355318A1, “MOLECULAR MACHINES FOR TREATMENT OF CANCER, FUNGAL INFECTIONS, OR BACTERIAL INFECTIONS” (priority 2022, published 2026):

Experiments:
T. rubrum = experiment: Ex vivo onychomycosis porcine nail model; design: species or system Trichophyton rubrum on porcine nails; key to Summary of significance, fungal load: * p<0.05; ** p<0.01; *** p<0.001; **** p<0.0001; ns: non-significant; conditions: for Mean rank diff. of fungal load: T. rubrum nails
Procedure: For microconidia preparation, T. rubrum was inoculated on potato dextrose agar containing 0.025% Sabouraud dextrose broth (SDB) and 1.0% penicillin-streptomycin. After a 10-day incubation at 28 ° C, the plates were flooded with PBS, which was then aspirated and filtered through a sterilized cotton gauze to recover microconidia (Ma et al., 2022).
An ex vivo onychomycosis model was established as previously described (Quatrin et al., 2020) with modifications. Pig hooves with exposed toenails were processed into ~1 cm^2-sized individual toenail samples with a band saw, washed with 70% ethyl alcohol and sterilized water, and inoculated with a microconidia suspension of T. rubrum (~10^7 conidia mL^−1) for 3 h. Samples were placed in a Petri dish containing moist sterilized paper and incubated at 28 ° C for 10 days. Fungal growth was confirmed by sample resuspension in PBS and plating on PDA containing 0.025% SDB and 1% penicillin-streptomycin. Infected samples were then treated with (1) 1% DMSO plus light, (2) monotherapy with MM 1 alone (0.77% in DMSO) plus light, (3) monotherapy with conventional antifungal (three drops (Quatrin et al., 2020) of Ciclopirox Topical Suspension USP, 0.77% “Lotion”, Leading Pharma, LLC, NY, USA, or Ciclopirox Topical Solution, 8% “Lacquer”, Perrigo New York Inc., NY, USA), or (4) combination therapy with MM 1 plus light and conventional antifungal. Each treatment group consisted of three samples. After 30 min, samples in the irradiated treatment groups were transferred to 24-well plates (Corning-Costar Corp., Corning, NY, USA) and irradiated with 405-nm light (87.6 J cm^−2). Treatment was repeated every 24 h for 5 days. Afterward, the samples were transferred to tubes containing PBS plus 1% penicillin-streptomycin, vortexed, and sonicated (Quatrin et al., 2020). Triplicate aliquots of this suspension were inoculated on PDA plates containing 1% penicillin-streptomycin. After a 10-day incubation at 28 ° C, CFU numbers were determined. Untreated samples served as positive controls.

[1] = system: persister cells of A. baumannii; experiment: Persister eradication, A. baumannii; format: cell-based, Acinetobacter baumannii; conditions: 1×MIC, 405 nm
E. coli transcripts = experiment: GO enrichment analysis of transcripts more abundant in DMSO controls than in MM 1-treated E. coli; format: cell-based, Escherichia coli; conditions: more abundant in DMSO controls than at 0.5×MIC, 405 nm
Procedure: Gene ontology (GO) enrichment analysis of the transcripts displaying significant differences (p<0.05) in abundance between MM- and DMSO-treated cells was performed using Panther (http://pantherdb.org/) using the Fisher's Exact test. Results were corrected for the false discovery rate (FDR).

[2] = cytosolic small ribosomal subunit
[3] = integral component of plasma membrane
[4] = intracellular anatomical structure
[5] = intracellular non-membrane-bounded organelle
[6] = intrinsic component of membrane
[7] = intrinsic component of plasma membrane
[8] = plasma membrane protein complex
[9] = plasma membrane respiratory chain complex I

**Q.** For C[C@@H]1Cc2ccc3ccccc3c2/C1=C1\c2ccccc2Sc2cc(NCCN(C)C)ccc21 [MM 1, N^1N^1-dimethyl-N^2-(9-(2-methyl-2,3-dihydro-1H-cyclopenta[a]naphthalen-1-ylidene)-9H-thioxanthen-3-yl) ethane-1,2-diamine], which “Summary of significance, fungal load” value (T. rubrum; 1% DMSO vs treatment) is on record?
**A.** ** (** p<0.01)

**Q.** What about the “Mean rank diff. of fungal load” value (T. rubrum; 1% DMSO vs treatment) of the same compound?
**A.** 28.00

**Q.** What about the “Summary of significance, fungal load” value (T. rubrum; CPX Lacquer vs treatment) of the same compound?
**A.** ns

**Q.** What about the “Mean rank diff. of fungal load” value (T. rubrum; CPX Lacquer vs treatment) of the same compound?
**A.** 14.33

**Q.** And the “Summary of significance, fungal load” value (T. rubrum; CPX Lotion vs treatment)?
**A.** ns

**Q.** What about the “Mean rank diff. of fungal load” value (T. rubrum; CPX Lotion vs treatment) of the same compound?
**A.** 14.67

**Q.** And the log reduction at 7700 µg/mL (T. rubrum; Trichophyton rubrum, topical, T. rubrum, 0.77% (w/v) MM 1 + 405-nm light, vs DMSO controls, read-out: reduction of fungal burden in porcine nails)?
**A.** ~2

**Q.** What about the “time to reduce persister cells to limit of detection” value [1] of the same compound?
**A.** 3 min

**Q.** And the “Fold Enrichment” value (E. coli transcripts; NADH dehydrogenase complex)?
**A.** 3.02

**Q.** What about the “transcripts significantly enriched in DMSO controls, #” value (“transcripts significantly enriched” for short) (E. coli transcripts; NADH dehydrogenase complex) of the same compound?
**A.** 15

**Q.** What about the “Fold Enrichment” value (E. coli transcripts; Unclassified (−)) of the same compound?
**A.** .71

**Q.** And the “transcripts significantly enriched” value (E. coli transcripts; Unclassified (−))?
**A.** 300

**Q.** What about the “Fold Enrichment” value (E. coli transcripts; catalytic complex) of the same compound?
**A.** 1.51

**Q.** What about the “transcripts significantly enriched” value (E. coli transcripts; catalytic complex) of the same compound?
**A.** 129

**Q.** And the “Fold Enrichment” value (E. coli transcripts; cell periphery)?
**A.** 1.15

**Q.** And the “transcripts significantly enriched” value (E. coli transcripts; cell periphery)?
**A.** 454

**Q.** What about the “Fold Enrichment” value (E. coli transcripts; cellular anatomical entity) of the same compound?
**A.** 1.14

**Q.** What about the “transcripts significantly enriched” value (E. coli transcripts; cellular anatomical entity) of the same compound?
**A.** 969

**Q.** What about the “Fold Enrichment” value (E. coli transcripts; cytoplasm) of the same compound?
**A.** 1.18

**Q.** What about the “transcripts significantly enriched” value (E. coli transcripts; cytoplasm) of the same compound?
**A.** 487

**Q.** What about the “Fold Enrichment” value (E. coli transcripts; cytosol) of the same compound?
**A.** 1.28

**Q.** What about the “transcripts significantly enriched” value (E. coli transcripts; cytosol) of the same compound?
**A.** 394

**Q.** What about the “transcripts significantly enriched” value (E. coli transcripts; cytosolic large ribosomal subunit) of the same compound?
**A.** 25

**Q.** What about the “Fold Enrichment” value (E. coli transcripts; cytosolic ribosome) of the same compound?
**A.** 2.64

**Q.** And the “transcripts significantly enriched” value (E. coli transcripts; cytosolic ribosome)?
**A.** 44

**Q.** And the “Fold Enrichment” value (E. coli transcripts; [2])?
**A.** 2.60

**Q.** What about the “transcripts significantly enriched” value (E. coli transcripts; [2]) of the same compound?
**A.** 19

**Q.** What about the “Fold Enrichment” value (E. coli transcripts; integral component of membrane) of the same compound?
**A.** 1.20

**Q.** And the “transcripts significantly enriched” value (E. coli transcripts; integral component of membrane)?
**A.** 386

**Q.** And the “Fold Enrichment” value (E. coli transcripts; [3])?
**A.** 1.27

**Q.** What about the “transcripts significantly enriched” value (E. coli transcripts; [3]) of the same compound?
**A.** 216

**Q.** What about the “Fold Enrichment” value (E. coli transcripts; [4]) of the same compound?
**A.** 1.20

**Q.** What about the “transcripts significantly enriched” value (E. coli transcripts; [4]) of the same compound?
**A.** 509

**Q.** What about the “Fold Enrichment” value (E. coli transcripts; [5]) of the same compound?
**A.** 2.09

**Q.** And the “transcripts significantly enriched” value (E. coli transcripts; [5])?
**A.** 61

**Q.** And the “Fold Enrichment” value (E. coli transcripts; intracellular organelle)?
**A.** 2.01

**Q.** And the “transcripts significantly enriched” value (E. coli transcripts; intracellular organelle)?
**A.** 63

**Q.** And the “Fold Enrichment” value (E. coli transcripts; [6])?
**A.** 1.19

**Q.** What about the “transcripts significantly enriched” value (E. coli transcripts; [6]) of the same compound?
**A.** 392

**Q.** What about the “Fold Enrichment” value (E. coli transcripts; [7]) of the same compound?
**A.** 1.29

**Q.** And the “transcripts significantly enriched” value (E. coli transcripts; [7])?
**A.** 225

**Q.** And the “Fold Enrichment” value (E. coli transcripts; large ribosomal subunit)?
**A.** 2.67

**Q.** What about the “transcripts significantly enriched” value (E. coli transcripts; large ribosomal subunit) of the same compound?
**A.** 25

**Q.** And the “Fold Enrichment” value (E. coli transcripts; membrane protein complex)?
**A.** 1.55

**Q.** And the “transcripts significantly enriched” value (E. coli transcripts; membrane protein complex)?
**A.** 98

**Q.** And the “Fold Enrichment” value (E. coli transcripts; membrane)?
**A.** 1.16

**Q.** And the “transcripts significantly enriched” value (E. coli transcripts; membrane)?
**A.** 470

**Q.** And the “Fold Enrichment” value (E. coli transcripts; non-membrane-bounded organelle)?
**A.** 1.68

**Q.** What about the “transcripts significantly enriched” value (E. coli transcripts; non-membrane-bounded organelle) of the same compound?
**A.** 64

**Q.** And the “Fold Enrichment” value (E. coli transcripts; organelle)?
**A.** 1.65

**Q.** What about the “transcripts significantly enriched” value (E. coli transcripts; organelle) of the same compound?
**A.** 66

**Q.** What about the “Fold Enrichment” value (E. coli transcripts; oxidoreductase complex) of the same compound?
**A.** 2.47

**Q.** What about the “transcripts significantly enriched” value (E. coli transcripts; oxidoreductase complex) of the same compound?
**A.** 47

**Q.** And the “Fold Enrichment” value (E. coli transcripts; [8])?
**A.** 1.51

**Q.** What about the “transcripts significantly enriched” value (E. coli transcripts; [8]) of the same compound?
**A.** 73

**Q.** What about the “Fold Enrichment” value (E. coli transcripts; plasma membrane respirasome) of the same compound?
**A.** 2.99

**Q.** And the “transcripts significantly enriched” value (E. coli transcripts; plasma membrane respirasome)?
**A.** 21

**Q.** And the “Fold Enrichment” value (E. coli transcripts; [9])?
**A.** 2.99

**Q.** And the “transcripts significantly enriched” value (E. coli transcripts; [9])?
**A.** 14

**Q.** And the “Fold Enrichment” value (E. coli transcripts; plasma membrane)?
**A.** 1.19

**Q.** What about the “transcripts significantly enriched” value (E. coli transcripts; plasma membrane) of the same compound?
**A.** 431

**Q.** What about the “Fold Enrichment” value (E. coli transcripts; protein-containing complex) of the same compound?
**A.** 1.47

**Q.** What about the “transcripts significantly enriched” value (E. coli transcripts; protein-containing complex) of the same compound?
**A.** 258

**Q.** And the “Fold Enrichment” value (E. coli transcripts; respirasome)?
**A.** 3.04

**Q.** And the “transcripts significantly enriched” value (E. coli transcripts; respirasome)?
**A.** 24

**Q.** And the “Fold Enrichment” value (E. coli transcripts; respiratory chain complex I)?
**A.** 2.99

**Q.** And the “transcripts significantly enriched” value (E. coli transcripts; respiratory chain complex I)?
**A.** 14

**Q.** And the “Fold Enrichment” value (E. coli transcripts; respiratory chain complex)?
**A.** 3.01

**Q.** And the “transcripts significantly enriched” value (E. coli transcripts; respiratory chain complex)?
**A.** 22

**Q.** And the “Fold Enrichment” value (E. coli transcripts; ribonucleoprotein complex)?
**A.** 2.61

**Q.** And the “transcripts significantly enriched” value (E. coli transcripts; ribonucleoprotein complex)?
**A.** 45

**Q.** What about the “Fold Enrichment” value (E. coli transcripts; ribosomal subunit) of the same compound?
**A.** 2.64

**Q.** And the “transcripts significantly enriched” value (E. coli transcripts; ribosomal subunit)?
**A.** 44

**Q.** And the “Fold Enrichment” value (E. coli transcripts; ribosome)?
**A.** 2.51

**Q.** What about the “transcripts significantly enriched” value (E. coli transcripts; ribosome) of the same compound?
**A.** 47

**Q.** What about the “Fold Enrichment” value (E. coli transcripts; small ribosomal subunit) of the same compound?
**A.** 2.60

**Q.** And the “transcripts significantly enriched” value (E. coli transcripts; small ribosomal subunit)?
**A.** 19
